2 compounds from patent US11518996B2, “Methods and compositions for treating cancer using peptide nucleic acid-based agents” (MEMORIAL SLOAN-KETTERING CANCER CENTER, priority 2013, dated 2022) can be followed below.

“Also recorded” adds a separate entry of the source.

The subject of data set [1] is BRAF V600E mutant protein. Nature of the data set: Western blot of BRAF V600E mutant protein in OCM1A cells. The class given is cell-based. The conditions noted are these: 750 nM, over 72 hours. The protocol:
(§1) Cells were treated for 24, 48 and 72-hour treatments with 750 nM PNA and lysed in radioimmunoprecipitation assay (RIPA) buffer supplemented with protease inhibitor cocktail tablets (Roche Diagnostics) and 1 mmol/L Na3VO4. Equal amounts of protein were loaded on 4% to 12% PAGE gels (Invitrogen). Polyvinylidene difluoride (PVDF) membranes were blocked with 5% nonfat dried milk and probed with p-MEK, MEK, p-ERK 1/2 (T202/Y204), ERK 1/2, cleaved PARP, α-tubulin (Cell Signaling Technology), BRAF (Santa Cruz Biotechnology), LC3 (Novus Biologicals) and BRAF V600E (Spring Bioscience).
(§2) FIGS. 3A-3C depict BRAF mutant and BRAF wild type protein expression in melanoma cells (C918 and OCM1A) treated with 750 nM of the PNA I-292-3 L2LP NHAc for 24, 48 or 72 hours. FIG. 3A depicts the measurement of mutant and total BRAF protein expression as measured by Western blotting in C918 and OCM1A cells. Tubulin expression was also measured as a loading control. […]
(§3) FIGS. 4A-4C depict BRAF mutant and BRAF wild type protein expression in melanoma cells (C918 and OCM1A) treated with 750 nM of the PNA I-292-9 L2 NHAc for 24, 48 or 72 hours. FIG. 4A depicts the measurement of mutant and total BRAF protein expression as measured by Western blotting in C918 and OCM1A cells. Tubulin expression was also measured as a loading control. […]
(In western blotting, separated proteins are transferred to a membrane and probed.)

In a further data set the test system is OCM1A cells. Kind of data set: Cell viability assay (CCK8), BRAF V600E mutant uveal melanoma cells. To be noted: increasing doses, 72 hours. The protocol: (§4) PNA compounds targeting the BRAF V600E gene mutation were tested against melanoma cell lines that are either BRAF wild type (C918) or BRAF V600E mutant (OCM1A and SK-MEL 7). C918 and OCM1A are uveal melanoma cell lines while SK-MEL 7 is a cutaneous melanoma cell line. C918 was kindly provided by Robert Folberg (University of Illinois, Chicago, Ill.). OCM1A was from Dr. William Harbour (Washington University, St. Louis, Mo.). SK-MEL 7 was from Alan Houghton (Memorial Sloan-Kettering Cancer Center, New York, N.Y.). Cells were cultured in RPMI medium supplemented with 10% FBS, 100 units/mL penicillin, and […] streptomycin and maintained at 37° C. in 5% CO2.
(§5) PNA compounds targeting the BRAF V600E gene mutation were tested against melanoma cell lines that are either BRAF wild-type (C918) or BRAF V600E mutant (OCM1A and SK-MEL 7). C918 and OCM1A are uveal melanoma cell lines while SK-MEL 7 is a cutaneous melanoma cell line. […] Cells were treated with increasing doses of several PNA derivatives for 72 hours after which the cell viability was measured and calculated relative to the untreated cells. Cells were plated in 96-well plates and treated in triplicates with the indicated concentrations of PNA derivative. Viability was assessed after 72 hours of treatment using the Cell Counting Kit 8 (CCK8) from Dojindo Molecular Technologies according to the manufacturer's instructions.

In another data set the test system is SK-MEL 7 cells. Kind of data set: Cell viability assay (CCK8), BRAF V600E mutant cutaneous melanoma cells. To be noted: increasing doses, 72 hours. The protocol:
as §4, §5

For data set [2], the system named is BRAF. Nature of the data set: BRAF expression by Western blot in OCM1A cells. The format is cell-based. As to the method:
as §5, §1

The subject of data set [3] is total BRAF wild type protein. Nature of the data set: Western blot of total BRAF protein in C918 cells. The format is cell-based. The conditions noted are these: 750 nM, over 72 hours. As to the method: as §1, §2, §3
In data set [4] the test system is BRAF V600E mRNA. Nature of the data set: qRT-PCR of BRAF V600E mRNA in OCM1A cells. The format is cell-based. To be noted: 750 nM, 48 hours, RT-PCR, normalized with GAPDH. The protocol: (§6) C918 and OCM1A cells were treated with 750 nM PNA (I-292-3 L2LP) for 48 hours. Mutant BRAF mRNA expression in cells was quantified using RT-PCT. Specifically, cells were treated and then lysed using TRIzol Reagent® (Invitrogen). Reverse transcription of 1 μg of RNA was done using the SuperScript III First-Strand Synthesis System (Invitrogen). Quantitative real-time PCR (qRT-PCR) assays were performed using the 7300 Real Time PCR System (Applied Biosystems). TaqMan gene expression assays, which include gene-specific probe primer sets (Applied Biosystems), were used to detect the indicated genes and glyceraldehyde-3-phosphate dehydrogenase (GAPDH)/hypoxanthine phosphoribosyltransferase (HPRT) mRNA. The relative expression of each gene was calculated by the ΔΔCT method. Cells wild-type for BRAF (C918) as well as mutant cell lines (OCM1A and SK-Mel 7) were treated for 48 hours with 750 nM I-292-3 L2LP NHAc. According to FIG. 5A, BRAF^V600E mRNA expression was quantified using RT-PCR. Relative Quantity (RQ) values were normalized with GAPDH loading control and set relative to the mutant BRAF mRNA expression in untreated OCM1A cells (ND). […] According to FIG. 5B, Both BRAF^V600E and total BRAF mRNA expression in SK-Mel 7 cells were quantified using RT-PCR. RQ values were normalized with GAPDH and set relative to untreated cells. […]

Data set [5] concerns BRAF V600E mRNA. Kind of data set: qRT-PCR of BRAF V600E mRNA in SK-Mel 7 cells. To be noted: 750 nM, 48 hours, RT-PCR, normalized with GAPDH. The format is cell-based. The protocol: as §6
A general note: In qPCR the cycle at which signal appears reflects the starting amount.

A further data set relates to total BRAF mRNA. Nature of the data set: qRT-PCR of total BRAF mRNA in SK-Mel 7 cells. To be noted: 750 nM, 48 hours, RT-PCR, normalized with GAPDH. The class given is cell-based. The protocol: as §6
The next data set has as its system OCM1A. Nature of the data set: Xenograft mouse trial, tumor size. The class given is in vivo, Athymic mice. As to the method: Athymic mice (3 per group) were inoculated with OCM1A. After 15 days, the size of the developing tumor was sufficient for further measurement and monitoring. The treatment group was given 50 mg/kg dosage of I-292-3 L2LP-NHAc on days 15, 17, 20 and 22. […] Moreover, one week following the last dose, the average tumor size of the treated group began to shrink by 25% over 4 days.

Data set [6] relates to total BRAF wild type protein. Nature of the data set: Western blot of total BRAF protein in OCM1A cells. The class given is cell-based. To be noted: 750 nM, over 72 hours. The protocol: as §1, §2, §3
Data set [7] deals with BRAF. Kind of data set: BRAF expression by Western blot in SK MEL 7 cells. The class given is cell-based. The protocol: as §5, §1
The nature of data set [8]: Toxicity in xenograft mice by weight loss and activity. The format is in vivo, Athymic mice. The conditions noted are these: OCM1A xenograft mice, 50 mg/kg doses, 28 day study. As to the method: Toxicity of the tested PNA derivative was evaluated by measuring weight loss of test animals.

As for `CCCCCCCCCCCCCCCC(=O)NCCCC[C@H](NC(=O)[C@@H](CCCCN)NC(=O)[C@@H](CCCCN)NC(=O)[C@H](NC(=O)[C@@H](CCCCN)NC(=O)[C@@H](CCCNC(=N)N)NC(=O)[C@@H](CCCCN)NC(=O)[C@@H](CCCCN)NC(=O)[C@@H](CCCCN)NC(=O)[C@H]1CCCN1C(=O)[C@@H](CCCCN)NC(=O)CN(CCNC(=O)CN(CCNC(=O)CN(CCNC(=O)CN(CCNC(=O)CN(CCNC(=O)CN(CCNC(=O)CN(CCNC(=O)CN(CCNC(=O)CN(CCNC(=O)CN(CCNC(=O)CN(CCNC(=O)CN(CCNC(=O)CN(CCNC(=O)CN(CCNC(=O)CN(CCNC(=O)CN(CCNC(=O)CN(CCNC(=O)CN(CCNC(=O)[C@@H](CCCCN)NC(=O)[C@@H](CCCCN)NC(=O)[C@H](CCCCNC(=O)CCCCCCCCCCCCCCC)NC(C)=O)C(=O)Cn1ccc(N)nc1=O)C(=O)Cn1ccc(N)nc1=O)C(=O)Cn1cc(C)c(=O)[nH]c1=O)C(=O)Cn1ccc(N)nc1=O)C(=O)Cn1cnc2c(N)ncnc21)C(=O)Cn1cnc2c(N)ncnc21)C(=O)Cn1cnc2c(=O)[nH]c(N)nc21)C(=O)Cn1cnc2c(N)ncnc21)C(=O)Cn1cnc2c(=O)[nH]c(N)nc21)C(=O)Cn1cc(C)c(=O)[nH]c1=O)C(=O)Cn1cnc2c(N)ncnc21)C(=O)Cn1cnc2c(N)ncnc21)C(=O)Cn1cc(C)c(=O)[nH]c1=O)C(=O)Cn1cnc2c(N)ncnc21)C(=O)Cn1cnc2c(N)ncnc21)C(=O)Cn1cc(C)c(=O)[nH]c1=O)C(=O)Cn1cnc2c(N)ncnc21)C(=O)Cn1cc(C)c(=O)[nH]c1=O)C(C)C)C(N)=O` [I-292-3 L2LP NHAc, AcNH-Lys(palmitoyl)-dLys-dLys-C CT CAAGAGTAATAATAT-dLys-dPro-dLys-dLys-dLysdArg-dLys-dVal-dLys-dLys-Lys(palmitoyl)-CONH2], the “BRAF V600E mutant protein expression in OCM1A cells” value in data set [1] is given as “decreased expression”. In the data set with OCM1A cells, the “suppression of cell viability in OCM1A cells” value is listed as “significant suppression of cell viability”. Moreover, in the data set with SK-MEL 7 cells, the “suppression of cell viability in SK-MEL 7 cells” value is “significant suppression of cell viability”. For the same compound, in the data set with BRAF [2], the “decrease in BRAF expression, OCM1A cells” value came to 40.3%. The “total BRAF wild type protein in C918 cells” value in [3] is listed as “no significant reduction”. Further, the “BRAF V600E mRNA expression in OCM1A cells” value in the data set on BRAF V600E mRNA [4] is “significantly decreased”. For the same compound, the “BRAF V600E mRNA expression in SK-Mel 7 cells” value with BRAF V600E mRNA [5] is “decreased significantly”. For the same compound, the “total BRAF mRNA expression in SK-Mel 7 cells” value in the data set with total BRAF mRNA is listed as “no observed decrease”. The same compound had a tumor volume regression in the data set on OCM1A (OCM1A xenograft mice, 50 mg/kg IP doses (FIG. 6A legend)) of 50%. Moreover, the “average tumor size as percentage of the untreated control group” value in the data set with OCM1A (OCM1A xenograft, 50 mg/kg on days 15, 17, 20 and 22, day 28) came to 35%. Further, in the data set with OCM1A (OCM1A xenograft, 50 mg/kg, over 4 days, one week following the last dose), the “shrinkage of average tumor size of the treated group” value amounted to 25%. The “total BRAF wild type protein in OCM1A cells” value in data set [6] is listed as “no significant reduction”. Further, in the data set with BRAF [7], the “decrease in BRAF expression, SK MEL 7 cells” value is listed as 62.4%. The “animal weight and activity (toxicity, words)” value in data set [8] was “no weight loss or changes in daily activity”.
On to “AcNH-Lys(palmitoyl)-dLys-dLys-CCTCAAGAGTAATAATAT-dLys-dArg3-dGln-dArg2-dLys2-dArg-Gly-dTyr-dLys-dLys-Lys(palmitoyl)-CONH2 [I-292-9 L2 NHAc]”, for which, in data set [1], the “BRAF V600E mutant protein expression in OCM1A cells” value is “decreased expression”. In addition, the “suppression of cell viability in OCM1A cells” value with OCM1A cells is “significant suppression of cell viability”. Moreover, the “suppression of cell viability in SK-MEL 7 cells” value in the data set on SK-MEL 7 cells is recorded as “significant suppression of cell viability”. The “total BRAF wild type protein in C918 cells” value in [3] is “no significant reduction”. In addition, the “total BRAF wild type protein in OCM1A cells” value in data set [6] was “slight decrease; also recorded: slight reduction”.
